Earlier results as cited in patent US20220331448A1, “COMPOSITIONS AND METHODS FOR TREATING SUCCINIC SEMIALDEHYDE DEHYDROGENASE DEFICIENCY (SSADHD)” (Washington State University, priority 2018, published 2022).

Experiments:
aldh5a1−/− mice = conditions: cited from earlier work
GABA-transaminase = biological target: T1, GABA-transaminase (Mus musculus, UniProt P61922); conditions: daily doses ˜10 mg/kg or osmotic minipumps; cited from earlier work
T1 construct: from tissue; host or cells: living mice (CNS), endogenous enzyme
T1 sequence (P61922 29-500): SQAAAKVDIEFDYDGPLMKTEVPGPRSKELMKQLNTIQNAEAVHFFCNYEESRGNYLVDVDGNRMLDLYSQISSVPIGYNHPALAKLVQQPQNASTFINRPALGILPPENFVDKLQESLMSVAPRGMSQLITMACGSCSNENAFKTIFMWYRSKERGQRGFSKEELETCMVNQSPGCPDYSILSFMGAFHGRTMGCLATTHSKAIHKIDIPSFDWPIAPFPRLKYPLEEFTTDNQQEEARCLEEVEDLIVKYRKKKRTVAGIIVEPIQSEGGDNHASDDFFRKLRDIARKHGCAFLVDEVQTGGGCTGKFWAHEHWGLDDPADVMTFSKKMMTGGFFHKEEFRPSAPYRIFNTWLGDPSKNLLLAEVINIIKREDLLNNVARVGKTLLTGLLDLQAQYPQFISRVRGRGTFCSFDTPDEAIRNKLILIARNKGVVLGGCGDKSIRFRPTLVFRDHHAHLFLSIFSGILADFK

## C=CC(N)CCC(=O)O (centres unmarked) [vigabatrin]
aldh5a1−/− mice
  rescue from premature lethality / lifespan extension: rescue
GABA-transaminase
  GABA in the CNS: significantly elevated
